Reference: patent publication US4816463A, “Substituted diimidazo [1,5-a: 4',5'-d]pyridines having antihypertensive activity” (Warner-Lambert Company, priority 1987, dated 1989)

Columns and labels:
[1] = biological target: rat adrenal receptor preparations (angiotensin II binding); experiment: inhibition of 125I-angiotensin II binding to rat adrenal receptor preparations; conditions: read-out: IC50 (μM) for inhibition of 125I angiotensin II binding to rat adrenal receptor preparations
[2] = tested on: 2 kidney, 1-clip Goldblatt hypertensive rat (RHR); experiment: antihypertensive evaluation (AHP3): blood pressure in conscious 2 kidney, 1-clip Goldblatt (renal) hypertensive rats (RHR); assay type: in vivo; conditions: 30 mg/kg ip in RHR, read-out: Max % decrease in blood pressure
Description: The continuous monitoring of pulsatile blood pressure (BP) from unrestrained conscious rats surgically equipped with polyethylene cannulas was accomplished by means of a computer assisted data capture scheme (CADCS). The basic elements of the methodology are the cannulation procedure and the CADCS.
Cannulas fabricated from polyethylene tubing were inserted into the aorta via an undersized puncture hole below the renal arteries. The puncture hole was made by a 23 G disposable needle with a section of the aorta clamped off above and below the puncture site. The cannulas, consisting of a PE100 (0.86 mm ID) body and a PE50 (0.58 mm ID) tip, were attached to a trocar, inserted through the psoas muscle, and passed subcutaneously along the midline of the back and externalized between the ears. The cannulas were anchored to the psoas muscle and between the scalulae (3-0 green braided suture). […] Each rat was then given penicillin 30,000 units subcutaneously (Penicillin G Procaine Sterile Suspension).
The rats were fitted with a harness-spring-swivel assembly designed to protect the cannula and to provide the rat relative freedom of movement. The harnesses were fabricated from nylon hook and loop tape cemented to a metal plate to which spring wires (18-8 stainless steel), were attached to brass swivels. […]

[3] = tested on: spontaneously hypertensive rat (SHR); experiment: antihypertensive evaluation (AHP3): blood pressure in conscious spontaneously hypertensive rats (SHR); assay type: in vivo; conditions: 30 mg/kg PO in SHR, read-out: Max % decrease in blood pressure
Method: Thus, for example, compounds of formula I when administered intrapertoneally or orally to 2 kidney, 1-clip Goldblatt (renal) hypertensive rats (See S. Sen, et al., "Role of Renin-Anfgiotensin System in Chronic Renal Hypertensive Rats," Hypertension 1: 427-4343 (1979) and Clin. Soc. 57: 53-62, 1979, "Antihypertensive Effect of Prolonged Blockade of Angiotensin Formation in Benign and Malignant, one- and two-kidney Goldblatt Hypertensive Rats".) at doses in the range of 1-100 mg/kg cause 10-80 mmHg drops in blood pressure. […] Angiotensin binding inhibition activity and blood pressure lowering activity in renal hypertensive rats of the optimally substituted examples of formula I are listed in Table 1. Blood pressure lowering activity in spontaneously hypertensive rats of optimally substituted examples of formula II are listed in Table 2. […]
CADCS: The pulsatile blood pressure of each of 32 rats was monitored continuously by two signal conditioning units (Gould, Cleve., Ohio). The signals from these units were monitored and digital data for mean, systolic, and diastolic blood pressures as well as for heart rate were calculated every 5 min by two in-laboratory computers (Hewlett Packard, Cupertino, Ca.). […]

IC50 [1] | Structure (SMILES) | change in vivo at 30 mg/kg [2] | change in vivo at 30 mg/kg [3]
8 µM | O=C(O)C1Cc2c(ncn2Cc2ccccc2)CN1C(=O)C1c2ccccc2-c2ccccc21 (racemic) [Example 29, 1H-Imidazo[4,5-c]pyridine-6-carboxylic acid, 5-[(9H-fluoren-9-yl)carbonyl]-4,5,6,7-tetrahydro-1-(phenylmethyl)-, (±)-] | -22% | –
– | CSc1ccc(N2C(=O)C3Cc4[nH]cnc4CN3C2=O)cc1 (stereo not drawn) [Example 158, 8a,9-Dihydro-7-[4-(methylthio)phenyl]-1H-diimidazo[1,5-a:4',5'-d]pyridine-6,8(4H,7H)-dione] | – | -17%
